The target of one assay is Carbonic anhydrase 4 (Homo sapiens, UniProt P22748). Kind of assay: Inhibition of recombinant human carbonic anhydrase 4 incubated for 15 mins prior to testing measured for 10 to 100 secs by phenol red based stopped-flow CO2 hydration assay.
The next assay has as its target Carbonic anhydrase 1 (Homo sapiens, UniProt P00915). The experiment in a line: Inhibition of recombinant human carbonic anhydrase 1 incubated for 15 mins prior to testing measured for 10 to 100 secs by phenol red based stopped-flow CO2 hydration assay.
The next assay concerns the target Carbonic anhydrase 7 (Homo sapiens, UniProt P43166). The experiment in a line: Inhibition of recombinant human carbonic anhydrase 7 incubated for 15 mins prior to testing measured for 10 to 100 secs by phenol red based stopped-flow CO2 hydration assay.
For the next assay, the target named is Carbonic anhydrase 2 (Homo sapiens, UniProt P00918). Kind of assay: Inhibition of recombinant human carbonic anhydrase 2 incubated for 15 mins prior to testing measured for 10 to 100 secs by phenol red based stopped-flow CO2 hydration assay.

Chain of Carbonic anhydrase 1 (P00915 whole entry): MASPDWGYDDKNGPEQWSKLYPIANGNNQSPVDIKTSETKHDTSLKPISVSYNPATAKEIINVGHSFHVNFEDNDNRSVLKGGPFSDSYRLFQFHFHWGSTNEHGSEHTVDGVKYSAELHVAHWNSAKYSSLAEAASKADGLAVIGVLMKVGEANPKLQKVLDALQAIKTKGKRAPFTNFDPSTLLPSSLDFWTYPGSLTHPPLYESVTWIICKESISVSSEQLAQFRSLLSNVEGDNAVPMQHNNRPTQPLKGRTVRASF
Chain of Carbonic anhydrase 4 (P22748 whole entry): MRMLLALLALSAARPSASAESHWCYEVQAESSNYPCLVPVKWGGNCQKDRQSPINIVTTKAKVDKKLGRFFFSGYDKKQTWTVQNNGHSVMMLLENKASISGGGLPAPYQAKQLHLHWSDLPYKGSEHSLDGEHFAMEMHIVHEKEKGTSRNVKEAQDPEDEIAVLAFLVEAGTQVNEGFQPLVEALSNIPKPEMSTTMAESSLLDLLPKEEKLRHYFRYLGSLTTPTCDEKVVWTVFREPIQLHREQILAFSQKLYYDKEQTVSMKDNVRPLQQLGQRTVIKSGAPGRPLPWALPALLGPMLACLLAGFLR
Chain of Carbonic anhydrase 7 (P43166 whole entry): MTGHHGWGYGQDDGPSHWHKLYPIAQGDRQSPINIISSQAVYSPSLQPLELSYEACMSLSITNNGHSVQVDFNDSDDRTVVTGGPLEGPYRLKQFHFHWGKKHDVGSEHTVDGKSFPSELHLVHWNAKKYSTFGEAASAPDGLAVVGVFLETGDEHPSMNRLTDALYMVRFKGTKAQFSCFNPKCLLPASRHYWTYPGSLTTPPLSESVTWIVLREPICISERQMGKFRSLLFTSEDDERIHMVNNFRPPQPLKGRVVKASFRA

As for `NS(=O)(=O)c1ccc(N2CCN=C2c2ccc(F)cc2)cc1`, the Ki – broadly, a dissociation constant, usually derived from enzyme kinetics or from competition with a known ligand – was found to be 9730 nM on Carbonic anhydrase 4, 2340 nM at Carbonic anhydrase 1, 303 nM on Carbonic anhydrase 7 and 76.1 nM at Carbonic anhydrase 2.

On to `NS(=O)(=O)c1ccc(N2CCN=C2c2ccc(Cl)cc2)cc1`, for which the Ki at Carbonic anhydrase 4 came out at 8140 nM; at Carbonic anhydrase 1, 960 nM; on Carbonic anhydrase 7 it was 269 nM; on Carbonic anhydrase 2, 46.7 nM.

As to `NS(=O)(=O)c1ccc(C2=NCCN2c2ccc(F)cc2)cc1`, the Ki on Carbonic anhydrase 2 turned out to be 742 nM.

For the compound `CCOc1ccccc1N1CCN=C1c1ccc(S(N)(=O)=O)cc1`, the Ki on Carbonic anhydrase 2 came to 866 nM.

Regarding `COc1ccc(N2CCN=C2c2ccc(S(N)(=O)=O)cc2)cc1`, the inhibition constant (Ki) on Carbonic anhydrase 2 came out at 53.3 nM.

For `NS(=O)(=O)c1ccc(C2=NCCN2c2cncnc2)cc1`, on Carbonic anhydrase 2, the Ki worked out at 703 nM.

As for `NS(=O)(=O)c1ccc(C2=NCCN2c2ccc(Cl)cc2)cc1`, at Carbonic anhydrase 2, the Ki stood at 182 nM.

Regarding `COc1ccc(N2CCN=C2c2ccc(S(N)(=O)=O)cc2)cc1OC`, the inhibition constant (Ki) at Carbonic anhydrase 2 was found to be 724 nM.

In the case of `Cc1ccccc1N1CCN=C1c1ccc(S(N)(=O)=O)cc1`, the inhibitory constant (Ki) on Carbonic anhydrase 2 came to 61.7 nM.

Turning to `NS(=O)(=O)c1ccc(C2=NCCN2c2ccccc2)cc1`, the Ki on Carbonic anhydrase 2 is 376 nM.

Regarding `NS(=O)(=O)c1ccc(C2=NCCN2c2cccnc2)cc1`, the Ki at Carbonic anhydrase 2 amounted to 848 nM.

(Values after ChEMBL document CHEMBL4130530, “Lucky Switcheroo: Dramatic Potency and Selectivity Improvement of Imidazoline Inhibitors of Human Carbonic Anhydrase VII” (ACS Med Chem Lett, 2017).)
